Structures are written as SMILES. Structures can show the parent of a compound that is named as a salt.

As for `COc1cc2c(cc1CCC(C)(C)O)-c1c(-c3cccs3)nc(C(=O)N(C)C(C)(C)C)n1CC2` [Example 41c, 9-(3-Hydroxy-3-methyl-butyl)-8-methoxy-1-thiophen-2-yl-5,6-dihydro-imidazo[5,1-a]isoquinoline-3-carboxylic acid tert-butyl-methyl-amide], the melting point – broadly, the temperature, or range, at which the solid turns liquid – lay within 140 to 143 °C.
The same measure for `COc1cc2c(cc1CC(C)C)-c1c(-c3cncs3)nc(C(=O)N(C)C(C)(C)C)n1CC2` [Example 38, 9-Isobutyl-8-methoxy-1-thiazol-5-yl-5,6-dihydro-imidazo[5,1-a]isoquinoline-3-carboxylic acid tert-butyl-methyl-amide]: 144 to 145 °C.
For `COc1cc2c(cc1CC(C)C)-c1c(-c3cccs3)nc(C(=O)N(C)C(C)(C)C)n1CC2` [Example 18k, 9-Isobutyl-8-methoxy-1-thiophen-2-yl-5,6-dihydro-imidazo[5,1-a]isoquinoline-3-carboxylic acid tert-butyl-methyl-amide] the value was 124 °C.
The same measure for `CCc1nnc(NC(=O)c2cc3c(cc2OC)CCn2c(C(=O)N(C)C(C)(C)C)nc(-c4cccs4)c2-3)s1` [Example 4, 8-Methoxy-1-thiophen-2-yl-5,6-dihydro-imidazo[5,1-a]isoquinoline-3,9-dicarboxylic acid 3-(tert-butyl-methyl-amide) 9-[(5-ethyl-[1,3,4]thiadiazol-2-yl)-amide]]: 238 to 240 °C; for `COc1cc2c(cc1CC(C)C)-c1c(-c3ncco3)nc(C(=O)N(C)C(C)(C)C)n1CC2` [Example 37f, 9-Isobutyl-8-methoxy-1-oxazol-2-yl-5,6-dihydro-imidazo[5,1-a]isoquinoline-3-carboxylic acid tert-butyl-methyl-amide]: 147 to 148 °C.
The molecule `CCN(C(=O)c1nc(-c2cccs2)c2n1CCc1cc(OC)c(OCCO)cc1-2)C(C)(C)C` [Example 34b, 9-(2-Hydroxy-ethoxy)-8-methoxy-1-thiophen-2-yl-5,6-dihydro-imidazo[5,1-a]isoquinoline-3-carboxylic acid tert-butyl-ethyl-amide] showed a melting point of 178 to 186 °C.
Molecule `COc1cc2c(cc1C(=O)NC(C)C)-c1c(-c3cccs3)nc(C(=O)N(C)C(C)(C)C)n1CC2` [Example 5, 8-Methoxy-1-thiophen-2-yl-5,6-dihydro-imidazo[5,1-a]isoquinoline-3,9-dicarboxylic acid 3-(tert-butyl-methyl-amide) 9-isopropylamide] returned a melting point of 197 to 198 °C.
The same measure for `COc1cc2c(cc1NC(=O)c1nccs1)-c1c(-c3cccs3)nc(C(=O)N(C)C(C)(C)C)n1CC2` [Example 10, 8-Methoxy-9-[(thiazole-2-carbonyl)-amino]-1-thiophen-2-yl-5,6-dihydro-imidazo[5,1-a]isoquinoline-3-carboxylic acid tert-butyl-methyl-amide]: 185 to 186 °C; for `COc1cc2c(cc1-c1cccc(NC(C)=O)c1)-c1c(-c3cccs3)nc(C(=O)N(C)C(C)(C)C)n1CC2` [Example 2f, 9-(3-Acetylamino-phenyl)-8-methoxy-1-thiophen-2-yl-5,6-dihydro-imidazo[5,1-a]isoquinoline-3-carboxylic acid tert-butyl-methyl-amide]: 123 °C; for `CCOc1ccc2c(c1)CCn1c(C(=O)N(C)C(C)(C)C)nc(-c3cccs3)c1-2` [Example 40c, 8-Ethoxy-1-thiophen-2-yl-5,6-dihydro-imidazo[5,1-a]isoquinoline-3-carboxylic acid tert-butyl-methyl-amide]: 111 to 112 °C.
Turning to `COc1cc2c(cc1C(=O)Nc1nncs1)-c1c(-c3cccs3)nc(C(=O)N(C)C(C)(C)C)n1CC2` [Example 3e, 8-Methoxy-1-thiophen-2-yl-5,6-dihydro-imidazo[5,1-a]isoquinoline-3,9-dicarboxylic acid 3-(tert-butyl-methyl-amide) 9-[1,3,4]thiadiazol-2-ylamide], the melting point was 154 to 156 °C.
Consider `COc1cc2c(cc1Oc1ccccc1)-c1c(-c3cccs3)nc(C(=O)N(C)C(C)(C)C)n1CC2` [Example 42b, 8-Methoxy-9-phenoxy-1-thiophen-2-yl-5,6-dihydro-imidazo[5,1-a]isoquinoline-3-carboxylic acid tert-butyl-methyl-amide], for which the melting point was in the range of 122 to 126 °C.
For `COc1cc2c(cc1NC(=O)c1cscn1)-c1c(-c3cccs3)nc(C(=O)N(C)C(C)(C)C)n1CC2` [Example 11, 8-Methoxy-9-[(thiazole-4-carbonyl)-amino]-1-thiophen-2-yl-5,6-dihydro-imidazo[5,1-a]isoquinoline-3-carboxylic acid tert-butyl-methyl-amide] the value was 240 to 242 °C; for `C=CCN1CCN(C(=O)c2nc(-c3cccs3)c3n2CCc2cc(OC)c(OC(C)C)cc2-3)CCC1=O` (as salt: salt) [Example 28, 4-Allyl-1-(9-isopropoxy-8-methoxy-1-thiophen-2-yl-5,6-dihydro-imidazo[5,1-a]isoquinoline-3-carbonyl)-[1,4]diazepan-5-one], 115 to 117 °C.
For the molecule `COc1cc2c(cc1-c1cccc(-n3cccn3)c1)-c1c(-c3cccs3)nc(C(=O)N(C)C(C)(C)C)n1CC2` [Example 2g, 8-Methoxy-9-(3-pyrazol-1-yl-phenyl)-1-thiophen-2-yl-5,6-dihydro-imidazo[5,1-a]isoquinoline-3-carboxylic acid tert-butyl-methyl-amide], the melting point was 180 °C.
Turning to `COc1cc2c(cc1-c1ccc3c(c1)OCO3)-c1c(-c3cccs3)nc(C(=O)N(C)C(C)(C)C)n1CC2` [Example 2r, 9-Benzo[1,3]dioxol-5-yl-8-methoxy-1-thiophen-2-yl-5,6-dihydro-imidazo[5,1-a]isoquinoline-3-carboxylic acid tert-butyl-methyl-amide], the melting point is 162 °C.
For `COc1cc2c(cc1-c1cccc(F)c1)-c1c(-c3cccs3)nc(C(=O)N(C)C(C)(C)C)n1CC2` [Example 2i, 9-(3-Fluoro-phenyl)-8-methoxy-1-thiophen-2-yl-5,6-dihydro-imidazo[5,1-a]isoquinoline-3-carboxylic acid tert-butyl-methyl-amide] the value was 165 °C; for `COc1cc2c(cc1-c1cccc(F)n1)-c1c(-c3cccs3)nc(C(=O)N(C)C(C)(C)C)n1CC2` [Example 2c, 9-(6-Fluoro-pyridin-2-yl)-8-methoxy-1-thiophen-2-yl-5,6-dihydro-imidazo[5,1-a]isoquinoline-3-carboxylic acid tert-butyl-methyl-amide], 161 to 162 °C.
For `COc1cc2c(cc1NC(=O)c1cccnc1)-c1c(-c3cccs3)nc(C(=O)N(C)C(C)(C)C)n1CC2` [Example 9, 8-Methoxy-9-[(pyridine-3-carbonyl)-amino]-1-thiophen-2-yl-5,6-dihydro-imidazo[5,1-a]isoquinoline-3-carboxylic acid tert-butyl-methyl-amide] the value was 159 to 161 °C.
For `COc1cc2c(cc1Br)-c1c(-c3cccs3)nc(C(=O)N(C)C(C)(C)C)n1CC2` [Example 1j, 9-Bromo-8-methoxy-1-thiophen-2-yl-5,6-dihydro-imidazo[5,1-a]isoquinoline-3-carboxylic acid tert-butyl-methyl-amide] the value was 160 to 161 °C.

(Values after patent US8071587B2, “(Dihydro)imidazoiso[5,1-A]quinolines” (N. V. Organon, priority 2009, dated 2011).)
